These results are taken from patent US20100234313A1, “STABILIZED MICRONISED PARTICLES” (priority 2007, published 2010).

A short description of data set [1]: Particle size distribution and mean particle size (d4,3) by laser diffraction (LS230). In kind it is physicochemical. As to conditions: for mean particle size (d4,3): non-ground product dispersed in water. Here is the method:
Measurements were carried out for the following organic compounds: natamycin (DSM Gist, Delft, the Netherlands), nystatin (DSM, Delft, the Netherlands), cocoa (Blooker Cocoa, Amsterdam, the Netherlands) and coffee (Douwe Egberts Coffee, Utrecht, the Netherlands). For natamycin two products each containing differently shaped natamycin particles were included in the example; a natamycin product comprising disc-shaped particles and a natamycin product comprising needle-shaped particles. Before use the coffee was filtered through a 150 μm sieve. Samples of the above organic compounds were dispersed in demineralised water until the light obscuration value, which was measured by Laser Diffraction technology using a Laser Diffraction Particle Size Analyzer LS230 from BeckmanCoulter, Fullerton, Calif., USA, was between 45% and 55%. […] Then, the particle size distribution was analysed with the device for 90 seconds. The device made use of a red laser and a tungsten lamp with wavelengths of 450, 600 and 900 nm to measure the particle size. The device required the refractive index of the liquid phase and the particles and the imaginary refractive index of the particles for determining the particle size distribution from the raw data. These values were manually entered into the measurement device (refractive index liquid: 1.33; refractive index natamycin: 1.6; nystatin: 1.6; cocoa: 2.0; coffee: 2.0; imaginary refractive index natamycin: 0.01; nystatin: 0.01; cocoa: 1.0; coffee: 1.0). From the particle size distribution the mean particle size was determined. The mean particle size provided by the measurement device was a volume based particle size, d4,3. The distribution per particle size range is given as a percentage of the total.
A buffer solution of pH 8 was made by mixing 13.75 ml citric acid solution of 0.1 mol/l with 486.25 ml sodium hydroxide solution of 0.2 mol/l. 25 g of disc-shaped natamycin (d4,3: 14.6 μm; DSM Gist, Delft, the Netherlands) was added to the buffer solution and the powder was dispersed by means of stirring. The grinding chamber (300 ml) of the ball mill (Dynomill KDL Special from Bachofen AG, Basel, Switzerland) was filled up to 75% (v/v) with 0.3 mm zirconium oxide beads stabilized with yttrium (Tosoh Corporation, Tokyo, Japan). The ball mill was operated at 2000 rotations per minute. The natamycin suspension was pumped through the ball mill at a flow rate of 6.1 g/s. The suspension that exited the ball mill was returned to the vessel containing the rest of the suspension. The suspension passed through the chamber of the ball mill multiple times during the grinding experiment. The residence time of the suspension in the grinding chamber and the vessel was 26.7 seconds and 59.4 seconds, respectively. Samples of the suspension exiting the mill were taken after 2, 5, 10, 20, 30, 45, 60, 75 and 90 minutes. The particle size in the suspension samples was measured for each sample by means of laser diffraction using the Laser Diffraction Particle Size Analyzer called LS230 from BeckmanCoulter (Fullerton, Calif., USA).
Disc-shaped natamycin powder was dispersed in water at a concentration of 3000 ppm. The mean particle size of the natamycin suspension was approximately 15 μm. The suspension was homogenized with a homogenizer (Panda 2K, ns100L, GEA NIRO SOAVI, Cell disrupter (R-type)) and a suspension comprising micronised natamycin particles was obtained. In Table 5 the mean particle size (d4,3) of the particles of the obtained suspension is shown as a function of homogenization pressure for a different number of homogenization cycles. […]
The experiment was essentially performed as for natamycin (see Example 2). […]

The nature of data set [2]: Sedimentation behaviour of suspensions (volume fraction below the sedimentation front). In kind it is physicochemical. Here is the method:
In this experiment the stability of micronised and non-micronised natamycin suspensions was analyzed by observing the sedimentation behavior of the suspensions. A micronised natamycin suspension was prepared essentially as described in Example 2 with the proviso that the natamycin was suspended in demineralized water and the pH was not set. Next, a suspension with a final natamycin concentration of 1% (w/w) was prepared in an aqueous solution containing 0.01 M NaCl. The pH of samples of the suspension was set with 0.01 M NaOH and 0.01 M HCl. The samples of the suspension were stored and the pH was adjusted after 10 and 24 hours, if necessary. After 24 hours the pH of the samples of the suspension remained constant. Ten ml of each separate sample was placed in a plastic pipette (Ten ml sterile and disposable plastic pipette; inner diameter 7 mm; Bibby Sterilin Ltd. Stone, Staffordshire, United Kingdom) which was closed at both ends and stored vertically at 4° C. The sedimentation behavior of the samples was followed in time by measuring the volume above and below the sedimentation front within each pipette. In Table 7 the results are shown. The percentages indicate the volume fraction below the sedimentation front. […] This implies that the particles form sediment. The rate at which this occurs varies with pH. […]

Data set [3] is described as follows: Dissolution test, suspension diluted 70 times with water at room temperature. The note with it: stirred. The class given is physicochemical. The protocol:
A micronised natamycin suspension prepared essentially as described in Example 7 (with size smaller than 0.2 μm) was diluted 70 times with water at room temperature. The suspension was stirred. Samples were taken out after 5 seconds and then every 10 seconds. The particles were removed from the suspension by filtration with a 0.02 μm syringe-filter (Whatman International Ltd, England). The natamycin concentration of the remaining solution was measured with a spectrophotometer (Uvikon 933, Kontron Instruments). […] The solution reached saturation within 5 seconds (approximately 43 ppm natamycin in solution and solid particles remaining). The same test was repeated with non-grinded disc-shaped natamycin particles with a mean particle size of around 15 μm. In this case the saturation concentration was reached after approximately 2 hours.

Data set [4] concerns Penicillium discolor PED1, CR1A and Penicillium discolor PED74, L1. Kind of data set: Challenge test on coated Gouda cheese. The class given is cell-based. The protocol: To test the efficacy of micronised natamycin in a cheese application, an experiment was performed wherein the surface of fresh brined Gouda cheeses were challenged with Penicillium discolor strains and treated with formulations comprising natamycin with different particle sizes. The amount of mould spores that was able to germinate on the treated cheese surfaces are an indication of the anti-fungal activity of the natamycin analyzed. The cheeses (10 per natamycin particle type) were considered to be no longer protected by natamycin, when at least 50% of the cheeses analyzed had more than two growing colonies.
Cheeses were coated with a coating containing base polymer Craymul 4386 (Cray Valley, Brummen) and containing natamycin particles. Cheeses were then contaminated at day zero with Penicillium discolor PED1, CR1A and Penicillium discolor PED74, L1 at a concentration of 1.1×10^3/cm^2. The cheeses were visually checked for fungal growth on a daily basis for three weeks. The experiment was carried out with three different natamycin particles: disc-shaped natamycin particles having a mean particle diameter of 15 μm; grinded disc-shaped natamycin particles for which grinding was stopped when the mean particle diameter was 1.23 μm; and micronised natamycin particles having a mean particle diameter of 0.18 μm. […] As a control, 10 cheeses comprising no natamycin in the coating were analyzed. […]

For `C[C@@H]1[C@H](O)[C@@H](C)/C=C/C=C/CC/C=C/C=C/C=C/C=C/C(O[C@H]2O[C@H](C)[C@@H](O)[C@H](N)[C@@H]2O)CC2O[C@](O)(CC(O)C(O)CCC(O)CC(O)CC(O)CC(=O)O[C@H]1C)CC(O)C2C(=O)O` (stereo partly drawn) [Nystatin, nystatin], in data set [1], the “mean particle size (d4,3)” value turned out to be 3.4 μm. For the same compound, the Particle size distribution in data set [1] (particle size 0-0.2 μm) is 7.4 % w/w; in data set [1] (particle size 0.2-0.8 μm), 4.4 % w/w; in data set [1] (particle size 0.8-2.0 μm) it was 27.2 % w/w; in data set [1] (particle size 2.0-5.0 μm) it was 46.7 % w/w; in data set [1] (particle size 5.0-10.0 μm), 12.2 % w/w; in data set [1] (particle size 10.0-50.0 μm), 2.1 % w/w. In data set [1] (particle size 50.0-200.0 μm), the Particle size distribution came to 0.0 % w/w. In addition, the “volume percentage below the sedimentation front” value in data set [2] (pH 4 to 6, after one day) is reported as “around 25%”.
With `C[C@@H]1C/C=C/C=C/C=C/C=C/[C@H](O[C@@H]2O[C@H](C)[C@@H](O)[C@H](N)[C@@H]2O)C[C@@H]2O[C@](O)(C[C@@H](O)C[C@H]3O[C@@H]3/C=C/C(=O)O1)C[C@H](O)[C@H]2C(=O)O` [Natamycin disc, natamycin], the entries for the “mean particle size (d4,3)” value in data set [1] (listed as Disc-shaped natamycin powder) and in data set [1] (listed as disc-shaped natamycin product) were “approximately 15 μm” and 14.6 μm, respectively. The Particle size distribution in data set [1] (particle size 0-0.2 μm) was found to be 0.0 % w/w; in data set [1] (particle size 0.2-0.8 μm), 0.0 % w/w; in data set [1] (particle size 0.8-2.0 μm), 0.8 % w/w; in data set [1] (particle size 2.0-5.0 μm), 18.4 % w/w; in data set [1] (particle size 5.0-10.0 μm), 32.6 % w/w; in data set [1] (particle size 10.0-50.0 μm) it was 47.8 % w/w. Moreover, the Particle size distribution in data set [1] (particle size 50.0-200.0 μm) was 0.4 % w/w. For the same compound, in data set [2] (all pH values (pH 3 to 10), within 24 hours), the sedimentation behaviour result was “completely sediment”. The “time to reach saturation concentration” value in data set [3] is “approximately 2 hours”. In addition, the “Protection of cheese against fungal growth” value in data set [4] (150 ppm natamycin in the coating) amounted to 16 days; in data set [4] (250 ppm natamycin in the coating) it was 18 days.
Regarding `C[C@@H]1C/C=C/C=C/C=C/C=C/[C@H](O[C@@H]2O[C@H](C)[C@@H](O)[C@H](N)[C@@H]2O)C[C@@H]2O[C@](O)(C[C@@H](O)C[C@H]3O[C@@H]3/C=C/C(=O)O1)C[C@H](O)[C@H]2C(=O)O` [Natamycin needle, natamycin], the “mean particle size (d4,3)” value in data set [1] (listed as needle-shaped natamycin product) stood at 6.4 μm. The Particle size distribution amounted to 10.2 % w/w in data set [1] (particle size 0-0.2 μm); 7.2 % w/w in data set [1] (particle size 0.2-0.8 μm); 10.5 % w/w in data set [1] (particle size 0.8-2.0 μm); 24.9 % w/w in data set [1] (particle size 2.0-5.0 μm); 31.7 % w/w in data set [1] (particle size 5.0-10.0 μm); 15.6 % w/w in data set [1] (particle size 10.0-50.0 μm). The Particle size distribution in data set [1] (particle size 50.0-200.0 μm) is listed as 0.0 % w/w.
